Source: paper PMC4963535, “Structure-guided development of heterodimer-selective GPCR ligands” (Nature Communications, 2016)
Entries after “also recorded” stand apart in the source; their conditions may differ.

Columns and labels:
hD4.4R = biological target: T1, hD4.4R (Homo sapiens, UniProt P21917); test: [3H]spiperone displacement, membranes from CHO cells stably expressing hD4.4R; type: binding
T1 construct: expressed in transfected cells
T1 sequence (P21917 1-419): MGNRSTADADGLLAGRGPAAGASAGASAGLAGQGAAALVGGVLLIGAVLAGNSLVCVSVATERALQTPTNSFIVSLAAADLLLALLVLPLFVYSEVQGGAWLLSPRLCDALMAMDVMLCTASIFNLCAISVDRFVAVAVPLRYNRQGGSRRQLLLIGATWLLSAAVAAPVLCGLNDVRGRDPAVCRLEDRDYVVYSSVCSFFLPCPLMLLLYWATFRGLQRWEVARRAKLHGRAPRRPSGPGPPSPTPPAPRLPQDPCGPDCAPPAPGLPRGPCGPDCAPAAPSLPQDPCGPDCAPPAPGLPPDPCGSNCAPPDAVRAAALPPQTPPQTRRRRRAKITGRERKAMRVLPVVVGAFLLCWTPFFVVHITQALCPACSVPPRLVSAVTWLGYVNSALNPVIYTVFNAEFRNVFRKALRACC
Source text: (§1) In brief, competition binding experiments with the human D2LR, D2SR38, D3R39, and D4.4R40 receptors were perfomed using preparations of membranes from CHO cells stably expressing the corresponding receptor together with
(§2) the D2LR, D2SR, D3R, and D4.4R receptors, respectively. Homogenates from CHO cells stably expressing the human NTS1R (cDNA purchased from Missouri S&T cDNA Resource Center (UMR), Rolla, MO) at
(§3) 1; PerkinElmer, Rodgau, Germany). Human NTS2R binding was achieved using homogenates from HEK
(§4) method41. Membranes were incubated at a final concentration of 4 µg per well with Bmax values of 350-
(§5) Freiburg, Germany). Unspecific binding was determined in the presence of haloperidol (10 µM for D2LR-
(§6) Protein concentration was established by the method of Lowry using bovine serum albumin as standard42.

D2SR/NTS1R = biological target: T2, D2SR/NTS1R (Homo sapiens, UniProt P14416+P30989); test: cAMP BRET assay (CAMYEL biosensor), HEK 293 T cells coexpressing D2SR and NTS1R; type: cell-based; conditions: for Emax: HEK-293T, read-out: Effect (Emax) D2SR/NTS1R, cAMP accumulation
T2 construct: expressed in transfected cells; host or cells: HEK 293 T
Procedure: (§7) 24 h post-transfection cells were seeded into white half-area 96-well plates at 2.0 × 10^4 cells per well and grown overnight. On the following day phenol red free medium was removed and replaced by PBS and cells were serum starved for 1 h before treatment. The assay was started by adding 10 μl coelenterazine-h (Promega, Mannheim, Germany) to each well to yield a final concentration of 5 μM. After 5 min incubation, compounds were added in PBS containing 50 μM forskolin (final concentration 10 μM). Reads of the plates started 15 min after agonist addition. BRET readings were collected using a CLARIOstar plate reader (BMG LabTech, Ortenberg, Germany). […] Curves were normalized to basal BRET ratio obtained from dPBS (0%) and the effect of 10 μM forskolin (100%).

D2R = biological target: T3, D2R (Homo sapiens, UniProt P14416); test: Antagonist effect on quinpirole-mediated inhibition of cAMP accumulation, HEK 293T cells expressing D2R; type: cell-based; conditions: 10 nM quinpirole
T3 construct: expressed in transfected cells; host or cells: HEK 293 T
Procedure: as §7

hD3R = biological target: T4, hD3R (Homo sapiens, UniProt P35462); test: [3H]spiperone displacement, membranes from CHO cells stably expressing hD3R; type: binding
T4 construct: expressed in transfected cells

D2R_D80A/NTS1R [1] = biological target: T5, D2R_D80A/NTS1R (Homo sapiens, UniProt P14416+P30989, D80A); test: β-arrestin-2 recruitment (DiscoveRx PathHunter), ProLink-tagged signalling incompetent D2R_D80A coexpressed with NTS1R; type: cell-based
T5 construct: host or cells: HEK 293 stably expressing EA-tagged β-arrestin-2
Procedure: (§8) The measurement of β-arrestin-2 recruitment stimulated by receptor activation was performed by utilizing the PathHunter assay purchased from DiscoveRx (Birmingham, UK) according to the manufacturer's protocol. […] Dose–response curves were calculated by nonlinear regression using the algorithms of PRISM 6.0. Control experiments were performed using the same approach and transfection of ProLink(PK1)-tagged PAR2 together with wild-type NTS1R. […] Resulting responses were then normalized to the effect of the PAR2 agonist f-LIGRLO-NH2.

D2SR = biological target: T6, D2SR (Homo sapiens, UniProt P14416); test: cAMP BRET assay (CAMYEL biosensor), HEK 293 T cells expressing D2SR; type: cell-based
T6 construct: expressed in transfected cells; host or cells: HEK 293 T
Procedure: as §7

D2R/NTS1R = biological target: T7, D2R/NTS1R (Homo sapiens, UniProt P14416+P30989); test: β-arrestin-2 recruitment (DiscoveRx PathHunter), HEK 293 cells with ProLink-tagged D2R and NTS1R; type: cell-based; conditions: D2R/NTS1R-coexpressing cells
T7 construct: host or cells: HEK 293 stably expressing EA-tagged β-arrestin-2
Procedure: as §8

D2LR/NTS1R = D2LR/NTS1R (Homo sapiens, UniProt P14416+P30989); test: [3H]spiperone displacement, membranes from HEK 293 T cells coexpressing D2LR and NTS1R
Procedure: (§9) Receptor-binding studies were carried out in analogy to a previously described method[53]. […] Protein concentration was established by the method of Lowry using bovine serum albumin as standard[54].
(§10) The resulting competition curves of the receptor-binding experiments were analysed by nonlinear regression using the algorithms in PRISM 6.0 (GraphPad Software, San Diego, CA). For each individual experiment, the data were fitted using a monophasic competition model to provide an IC50 value, which was then transformed into a Ki value according to the equation of Cheng and Prusoff[55].

NTS1R [2] = biological target: T8, NTS1R (Homo sapiens, UniProt P30989); test: radioligand displacement, homogenates from CHO cells stably expressing human NTS1R; type: binding; conditions: [3H]NT, mean ± s.d.
Source text: as §1, §2, §3, §4, §5, §6

hNTS2R = biological target: T9, hNTS2R (Homo sapiens, UniProt O95665); test: [3H]NT(8-13) displacement, homogenates from transiently transfected HEK 293T cells, human NTS2R; type: binding
T9 construct: host or cells: HEK 293T
Source text: as §1, §2, §3, §4, §5, §6

human D2LR = biological target: T10, human D2LR (Homo sapiens, UniProt P14416); test: [3H]spiperone displacement, membranes from HEK 293 T cells transiently transfected with D2LR; type: binding; conditions: D2LR monoexpression; mean ± s.e.m.
T10 construct: host or cells: HEK 293 T
Procedure: as §9, §10

hD2SR = biological target: T11, hD2SR (Homo sapiens, UniProt P14416); test: [3H]spiperone displacement, membranes from CHO cells stably expressing hD2SR; type: binding
T11 construct: expressed in transfected cells
Source text: as §1, §2, §3, §4, §5, §6

NTS1R [3] = biological target: T8, NTS1R; test: cAMP BRET assay (CAMYEL biosensor), HEK 293 T cells expressing NTS1R; type: cell-based; design: expressed in transfected cells; host or cells: HEK 293 T
Procedure: as §7

D2R_D80A/NTS1R [4] = biological target: T5, D2R_D80A/NTS1R; test: cAMP accumulation, cells coexpressing signalling incompetent D2R (D80A) and NTS1R; type: cell-based
Procedure: as §7
inhibit cAMP accumulation.
Data represent mean ± s.e.m.
of 3 independent experiments, each performed in triplicate.

hD2LR = biological target: T12, hD2LR (Homo sapiens, UniProt P14416); test: [3H]spiperone displacement, membranes from CHO cells stably expressing hD2LR; type: binding
T12 construct: expressed in transfected cells
T12 sequence (P14416 whole entry): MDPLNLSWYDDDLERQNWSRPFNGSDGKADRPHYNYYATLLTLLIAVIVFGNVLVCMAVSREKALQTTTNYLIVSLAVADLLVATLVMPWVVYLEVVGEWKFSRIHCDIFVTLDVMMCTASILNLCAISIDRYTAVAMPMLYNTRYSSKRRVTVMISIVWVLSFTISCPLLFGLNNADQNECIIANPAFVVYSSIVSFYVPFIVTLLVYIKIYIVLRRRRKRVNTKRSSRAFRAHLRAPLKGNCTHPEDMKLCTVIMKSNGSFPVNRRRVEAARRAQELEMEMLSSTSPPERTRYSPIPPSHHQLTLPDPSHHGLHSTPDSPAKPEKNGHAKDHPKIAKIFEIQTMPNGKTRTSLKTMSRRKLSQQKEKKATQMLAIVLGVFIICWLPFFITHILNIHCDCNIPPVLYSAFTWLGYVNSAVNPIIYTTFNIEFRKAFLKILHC

T6 sequence (P14416 1-414 isoform P14416-2): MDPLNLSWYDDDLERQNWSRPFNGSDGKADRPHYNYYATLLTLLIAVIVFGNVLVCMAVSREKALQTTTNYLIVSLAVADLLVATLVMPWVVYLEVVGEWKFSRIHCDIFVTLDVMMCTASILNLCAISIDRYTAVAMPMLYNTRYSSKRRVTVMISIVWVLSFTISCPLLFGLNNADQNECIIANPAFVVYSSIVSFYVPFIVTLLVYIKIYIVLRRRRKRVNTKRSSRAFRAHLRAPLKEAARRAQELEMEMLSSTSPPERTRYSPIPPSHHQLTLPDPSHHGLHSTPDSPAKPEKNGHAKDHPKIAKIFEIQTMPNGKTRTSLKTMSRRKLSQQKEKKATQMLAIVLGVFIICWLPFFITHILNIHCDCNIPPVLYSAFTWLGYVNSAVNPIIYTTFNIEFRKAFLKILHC
T2 sequence (P14416 1-414 isoform P14416-2): as above
T2 sequence (P30989 whole entry): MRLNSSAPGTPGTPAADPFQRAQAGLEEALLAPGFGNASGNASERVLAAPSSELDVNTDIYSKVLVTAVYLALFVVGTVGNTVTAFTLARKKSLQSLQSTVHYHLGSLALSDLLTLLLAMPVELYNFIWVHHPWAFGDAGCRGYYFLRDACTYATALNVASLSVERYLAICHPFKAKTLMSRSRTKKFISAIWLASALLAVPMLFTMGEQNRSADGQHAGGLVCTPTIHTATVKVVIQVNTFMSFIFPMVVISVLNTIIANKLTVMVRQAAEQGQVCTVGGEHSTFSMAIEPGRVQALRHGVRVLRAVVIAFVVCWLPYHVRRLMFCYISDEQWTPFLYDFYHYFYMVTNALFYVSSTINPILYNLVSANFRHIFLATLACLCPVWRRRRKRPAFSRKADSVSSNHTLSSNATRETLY
T8 sequence (P30989 whole entry): as above
Sequence of D2LR/NTS1R (P14416 whole entry): as the sequence (P14416 whole entry) above
Sequence of D2LR/NTS1R (P30989 whole entry): as the sequence (P30989 whole entry) above
T3 sequence (P14416 1-414 isoform P14416-2): as the sequence (P14416 1-414 isoform P14416-2) above
T5 sequence (P14416 1-414 isoform P14416-2 D80A): as the sequence (P14416 1-414 isoform P14416-2) above, with D80A counted along it
T5 sequence (P30989 whole entry): as the sequence (P30989 whole entry) above
T4 sequence (P35462 whole entry): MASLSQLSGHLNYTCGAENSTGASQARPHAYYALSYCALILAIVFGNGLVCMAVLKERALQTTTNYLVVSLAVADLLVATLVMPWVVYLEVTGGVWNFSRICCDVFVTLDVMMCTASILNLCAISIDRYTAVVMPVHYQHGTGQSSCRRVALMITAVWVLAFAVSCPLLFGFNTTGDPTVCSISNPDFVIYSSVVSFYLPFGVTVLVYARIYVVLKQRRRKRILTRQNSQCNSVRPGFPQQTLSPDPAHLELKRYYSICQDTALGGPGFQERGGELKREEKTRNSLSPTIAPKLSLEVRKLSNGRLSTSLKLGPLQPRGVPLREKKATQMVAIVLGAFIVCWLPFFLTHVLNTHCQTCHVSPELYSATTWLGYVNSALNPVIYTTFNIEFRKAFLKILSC
T11 sequence (P14416 1-414 isoform P14416-2): as the sequence (P14416 1-414 isoform P14416-2) above
T7 sequence (P14416 1-414 isoform P14416-2): as above
T7 sequence (P30989 whole entry): as the sequence (P30989 whole entry) above
T9 sequence (O95665 whole entry): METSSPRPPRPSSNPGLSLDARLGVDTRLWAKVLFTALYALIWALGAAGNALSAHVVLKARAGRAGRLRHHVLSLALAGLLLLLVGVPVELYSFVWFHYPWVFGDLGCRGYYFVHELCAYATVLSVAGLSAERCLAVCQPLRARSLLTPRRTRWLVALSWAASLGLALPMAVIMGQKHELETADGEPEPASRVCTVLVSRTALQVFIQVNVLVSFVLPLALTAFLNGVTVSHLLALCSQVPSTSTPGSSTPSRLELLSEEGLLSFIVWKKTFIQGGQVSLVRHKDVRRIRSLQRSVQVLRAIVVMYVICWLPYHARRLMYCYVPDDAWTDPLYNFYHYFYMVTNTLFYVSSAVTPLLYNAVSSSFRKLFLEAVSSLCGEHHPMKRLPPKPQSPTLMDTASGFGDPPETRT
T10 sequence (P14416 whole entry): as the sequence (P14416 whole entry) above

SMILES: CC[C@H](C)[C@H](NC(=O)[C@H](Cc1ccc(O)cc1)NC(=O)[C@@H]1CCCN1C(=O)[C@H](CCCNC(=N)N)NC(=O)[C@H](CCCNC(=N)N)NC(=O)CCOCCOCCOCCOCCOCCOCCNC(=O)CCOCCOCCOCCOCCOCCOCCNC(=O)c1ccc(-c2ccc(-n3cc(CCCCN4CCN(c5ccccc5OC)CC4)nn3)cc2)cc1)C(=O)N[C@@H](CC(C)C)C(=O)O [2b]
- Ki (hD4.4R): 180 ± 20 nM
- Emax (D2SR/NTS1R): 31 ± 3%
- change of cAMP levels in the absence of forskolin (D2SR/NTS1R; no forskolin, vehicle 0 %, maximum effect of NT(8-13) 100 %): 83%
- antagonist behaviour at D2R (in words) (D2R): neutral antagonists; also recorded: fully inhibit the effect of 10 nM quinpirole
- Ki (hD3R): 5.5 ± 0.9 nM
- concentration of maximum effect (bell-shaped curve), D2R_D80A/NTS1R (D2R_D80A/NTS1R [1]): 300 nM
- effect on forskolin-induced cAMP accumulation, cells expressing D2R only (in words) (D2SR; 10 μM forskolin): remained without significant effects
- concentration of maximum β-arrestin-2 recruitment (bell-shaped curve) (D2R/NTS1R): 300 nM
- preference for the high- over the low-affinity binding site in the presence of GppNHp (D2LR/NTS1R; 100 μM GppNHp): 330 fold
- Fraction high (fraction representing the high-affinity binding site) (D2LR/NTS1R; D2LR:NTS1R 1:2, mean ± s.e.m.): 55 ± 3%
- high affinity binding sites (fraction) (D2LR/NTS1R; D2R/NTS1R = 2:1): 49 ± 3%
- high affinity binding sites (fraction) (D2LR/NTS1R; D2R/NTS1R = 3:1): 30 ± 3%
- fraction high +GppNHp (D2LR/NTS1R; in presence of 100 μM GppNHp): 46 ± 3%

SMILES: CCCN(CCCCc1cn(-c2ccc(-c3ccc(C(=O)NCCOC)cc3)cc2)nn1)C1Cc2ccccc2C1 [3g]
- Emax (D2SR/NTS1R): -63 ± 2%
- EC50 (D2SR/NTS1R; read-out: EC50 D2SR/NTS1R, cAMP accumulation): 3.5 ± 1.4 nM
- Ki (NTS1R [2]): 180 ± 40 nM
- Ki (hNTS2R): 300 ± 250 nM
- Ki (hD3R): 0.53 ± 0.25 nM
- Ki (human D2LR): 21 ± 4 nM
- Emax (D2SR; HEK-293T, read-out: Effect (Emax) D2SR, cAMP accumulation): -65 ± 1%
- EC50 (D2SR; read-out: EC50 D2SR, cAMP accumulation): 2.8 ± 0.4 nM
- Ki (hD2SR): 3.3 ± 0.8 nM
- receptor activation (cAMP), cells monoexpressing NTS1R (in words) (NTS1R [3]; 10 μM forskolin): caused no effect
- cAMP response, cells expressing NTS1R only, absence of FSK (in words) (NTS1R [3]; no forskolin): do not elicit any response
- inhibition of cAMP accumulation, D2R (D80A)/NTS1R (in words) (D2R_D80A/NTS1R [4]): unable to inhibit cAMP accumulation
- Ki (hD2LR): 7.6 ± 1.7 nM
